Results on one compound are retold here after patent US7098204B2 (C.N.R.S., priority 1999, dated 2006).

In brackets after ≈: the same amount, converted by molar mass.

Test [1] deals with cdk2/cyclin E (Homo sapiens, UniProt P24941). The experiment in a line: cdk2/cyclin E kinase assay. It counts as biochemical. The settings on record: 15 μM ATP. The procedure:
(§1) Kinases activities were assayed in Buffer A or C (unless otherwise stated), at 30° C., at a final ATP concentration of 15 μM. Blank values were subtracted and activities calculated as pmoles of phosphate incorporated for a 10 min. incubation (usually expressed in % of the maximal activity, i.e. without inhibitors). Controls were performed with appropriate dilutions of Me2SO. In some cases phosphorylation of the substrate was assessed by autoradiography after SDS-PAGE. IC50 values were estimated from the dose-response curves. • CDK1/cyclin B was extracted in homogenisation buffer from M phase starfish (Marthasterias glacialis) oocytes and purified by affinity chromatography on p9^CKShs1-Sepharose beads, from which it was eluted by free p9^CKShs1 as described. The kinase activity was assayed in buffer C, with 1 mg histone H1/ml, in the presence of 15 μM [γ-^32P] ATP (3,000 Ci/mmol; 1 mCi/ml) in a final volume of 30 μl. After 10 min. incubation at 30° C., 25 μl aliquots of supernatant were spotted onto 2.5×3 cm pieces of Whatman P81 phosphocellulose paper, and, 20 sec. later, the filters were washed five times (for at least 5 min. each time) in a solution of 10 ml phosphoric acid/liter of water. The wet filters were counted in the presence of 1 ml ACS (Amersham) scintillation fluid. • GSK-3β was either purified from rabbit muscle or expressed in and purified from insect Sf9 cells. […]

The test system of test [2] is HT29-18-C1 cells. Kind of test: HT29-18-C1 growth inhibition (cell counts). In kind it is cell-based, human. The procedure:
(§2) Cell culture and treatments. HT29-18-C1, a subclone of the human colon adenocarcinoma cell line HT29, was cultured in Dulbecco's modified Eagle's medium (Gibco-BRL) supplemented with 10% FCS, 2 mM L-glutamine (Eurobio) and […] gentamycin (Gibco-BRL) at 37° C., 10% CO2. Cells were synchronized by serum deprivation for 48 h. They were then released from growth arrest by the addition of 5% fetal calf serum (FCS). HD, prepared in DMSO, was added immediately to the medium, for 24 h and at final concentrations ranging from 0 to 80 μM. In some experiments HD was added 22 h after serum addition for an additional 24 h. In other experiments HD was added to unsynchronised cells. Cells were then washed and cultured in 5% FCS medium and counted or analysed by FACS at different times.
Cell counts and flow cytometric cell cycle analysis. Cell were counted with a hemocytometer. Cell cycle distribution was analysed by flow cytometry. The adherent cells (1.10^6) were trypsinised and fixed in cold 70% ethanol for 4 h. […] The stained cells were analysed on a FACScan cytofluorimeter using the cellFit Software program (Becton Dickinson Immunocytometry Systems).
HT29-18-C1 cells were synchronised in G1 by serum deprivation. […] Cell number was determined every 12 h for a 72 h period using a hemocytometer. […] Serum-treated cells (time 0) were exposed to various HD concentrations and counted after 24 h. […]

The target in test [3] is CDK5/p35 (Rattus norvegicus, UniProt Q03114). The experiment in a line: In vitro Pak1 phosphorylation by immunoprecipitated CDK5/p35. It counts as biochemical. As to conditions: CDK5/p35 immunoprecipitated from P02 rat cortices; read-out: IC50 CDK5/p35 towards GST-Pak1K299.
Chain of CDK5/p35 (Q03114 whole entry): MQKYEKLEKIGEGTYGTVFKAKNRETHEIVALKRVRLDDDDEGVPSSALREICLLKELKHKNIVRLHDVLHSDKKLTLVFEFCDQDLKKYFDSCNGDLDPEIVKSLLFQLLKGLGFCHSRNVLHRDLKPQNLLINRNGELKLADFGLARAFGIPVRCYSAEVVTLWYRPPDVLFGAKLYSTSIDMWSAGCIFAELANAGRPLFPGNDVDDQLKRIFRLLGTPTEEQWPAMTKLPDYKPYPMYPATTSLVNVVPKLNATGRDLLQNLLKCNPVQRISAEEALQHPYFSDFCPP
Chain of CDK5/p35 (P61810 2-307 partner limits assumed): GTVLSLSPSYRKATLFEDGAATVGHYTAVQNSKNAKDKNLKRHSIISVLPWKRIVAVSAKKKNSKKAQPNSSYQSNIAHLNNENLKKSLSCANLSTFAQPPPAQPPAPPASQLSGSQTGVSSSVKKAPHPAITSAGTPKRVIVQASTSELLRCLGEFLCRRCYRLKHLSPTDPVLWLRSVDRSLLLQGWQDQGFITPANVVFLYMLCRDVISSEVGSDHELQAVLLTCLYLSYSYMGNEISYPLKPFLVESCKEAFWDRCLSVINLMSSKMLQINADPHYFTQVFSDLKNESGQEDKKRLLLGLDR
Experimental: CDK5/p35 was immunoprecipitaed from P02 rat cortices using the C-terminal Santa Cruz antibody (400 μg total protein per kinase assay). The immunoprecipitate was split into equal aliquots and the kinase assays performed using GST-Pak1 K299 as a substrate. […] Phosphorylation was monitored by autoradiography.
Test [4] deals with casein kinase 1. Kind of test: casein kinase 1 assay. In kind it is biochemical. As to conditions: 15 μM ATP; −(x) = no effect at highest concentration x tested; read-out: IC50 casein kinase 1 (CK 1). The procedure: (§3) Kinases activities were assayed in Buffer A or C (unless otherwise stated), at 30° C., at a final ATP concentration of 15 μM. Blank values were subtracted and activities calculated as pmoles of phosphate incorporated for a 10 min. incubation (usually expressed in % of the maximal activity, i.e. without inhibitors). Controls were performed with appropriate dilutions of Me2SO. In some cases phosphorylation of the substrate was assessed by autoradiography after SDS-PAGE. IC50 values were estimated from the dose-response curves. • CDK1/cyclin B was extracted in homogenisation buffer from M phase starfish (Marthasterias glacialis) oocytes and purified by affinity chromatography on p9^CKShs1-Sepharose beads, from which it was eluted by free p9^CKShs1 as described. The kinase activity was assayed in buffer C, with 1 mg histone H1/ml, in the presence of 15 μM [γ-^32P] ATP (3,000 Ci/mmol; 1 mCi/ml) in a final volume of 30 μl. After 10 min. incubation at 30° C., 25 μl aliquots of supernatant were spotted onto 2.5×3 cm pieces of Whatman P81 phosphocellulose paper, and, 20 sec. later, the filters were washed five times (for at least 5 min. each time) in a solution of 10 ml phosphoric acid/liter of water. The wet filters were counted in the presence of 1 ml ACS (Amersham) scintillation fluid. • GSK-3β was either purified from rabbit muscle or expressed in and purified from insect Sf9 cells. It was assayed, following a 1/100 dilution in 1 mg BSA/ml 10 mM DTT, with 5 μl 40 μM GS-1 peptide as a substrate, in buffer A, in the presence of 15 μM [γ-^32P] ATP (3,000 Ci/mmol; 1 mCi/ml) in a final volume of 30 μl. […] Its activity was assayed in buffer C as described for CDK1/cyclin B. • CDK2/cyclin A, CDK2/cyclin E, CDK3/cyclin E, CDK4/cyclin D1, CDK6/cyclin D2, His-tagged erk1 and erk2, protein kinase C isoforms, the catalytic subunit of cAMP-dependent protein kinase, cGMP-dependent protein kinase, Myosin light chain kinase, casein kinases 1 & 2, ASK-γ (a plant homologue of GSK-3), insulin receptor tyrosine kinase domain (CIRK-41), c-raf, MAPKK, c-jun N terminal kinase (obtained from Promega), c-src kinase and v-abl kinase were assayed as described. Electrophoresis and Western Blotting

The target in test [5] is protein kinase C α (Homo sapiens, UniProt P17252). The experiment in a line: protein kinase C α assay. It counts as biochemical. As to conditions: 15 μM ATP. As to the method:
as §1

The subject of test [6] is HT29-18-C1 cells. Kind of test: Flow cytometric cell cycle analysis, HT29-18-C1. In kind it is cell-based, human. As to the method: as §2
Cell counts and flow cytometric cell cycle analysis. Cell were counted with a hemocytometer. Cell cycle distribution was analysed by flow cytometry. […] The stained cells were analysed on a FACScan cytofluorimeter using the cellFit Software program (Becton Dickinson Immunocytometry Systems).
The results concerning the cell cycle distribution of HD-treated cells are given on FIG. 10A. […] Cells were then fixed and their cell cycle phase status was determined by FACscan analysis as described in the Experimental Procedures section. […] Cell cycle distribution was analysed every 24 h for a 72 h period. […]

Test [7] addresses c-src tyrosine kinase (Homo sapiens, UniProt P12931). The experiment in a line: c-src tyrosine kinase assay. In kind it is biochemical. As to conditions: 15 μM ATP. As to the method: as §1
Test [8] concerns the target CDK1/cyclin B. Kind of test: CDK1/cyclin B kinase assay (histone H1). It counts as biochemical, starfish (Marthasterias glacialis). As to the method:
as §3

Test [9] has as its system ovary, OVCAR-3. The experiment in a line: Human cancer cell line OVCAR-3 proliferation. It counts as cell-based.

Chain of c-src tyrosine kinase (P12931 whole entry): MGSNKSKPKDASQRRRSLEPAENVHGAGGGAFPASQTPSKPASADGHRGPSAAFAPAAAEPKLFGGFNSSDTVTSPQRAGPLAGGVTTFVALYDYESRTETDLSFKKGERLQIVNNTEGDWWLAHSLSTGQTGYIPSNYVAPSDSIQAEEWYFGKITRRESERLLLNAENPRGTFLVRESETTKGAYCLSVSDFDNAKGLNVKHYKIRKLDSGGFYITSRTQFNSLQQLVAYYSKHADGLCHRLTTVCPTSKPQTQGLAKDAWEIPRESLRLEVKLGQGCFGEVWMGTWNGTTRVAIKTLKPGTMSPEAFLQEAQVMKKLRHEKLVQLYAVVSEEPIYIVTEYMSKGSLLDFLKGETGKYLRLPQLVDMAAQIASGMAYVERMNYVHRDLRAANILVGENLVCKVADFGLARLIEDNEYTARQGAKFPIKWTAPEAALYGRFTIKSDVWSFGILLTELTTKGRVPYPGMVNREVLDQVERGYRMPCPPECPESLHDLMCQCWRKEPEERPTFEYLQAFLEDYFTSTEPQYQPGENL

Turning to `NC1=NC(=O)C(=C2CCNC(=O)c3[nH]c(Br)cc32)N1` [hymenialdisine, 4-(2-amino-4-oxo-2-imidazolin-5-ylidene)-2-bromo-4,5,6,7-tetrahydropyrrolo (2,3-c) azepine-8-one], the IC50 in test [1] is 40 nM; in [2] (Homo sapiens, serum-treated cells counted after 24 h), 5000 nM; in [3], 10 to 100 nM; in test [4] it was 35 nM; in test [5] it was 700 nM; in [7], 7000 nM. For the same compound, the IC50 in test [8] is 22 nM; in [9], 1.8 µg/mL (≈ 5.55 µM). Also, the “growth of HT29-18-C1 (cell number)” value in [2] (10 μM for 24 h, followed over 72 h) is recorded as “strong growth inhibition”. Moreover, the cell cycle distribution entry in [6] (10 μM HD added 22 hr after serum, analysed 14 h later) is given as “accumulation of cells in G2/M”; in test [6] (HD added with serum at time 0, 24 h), “accumulation of cells in S phase”.
